# Results published in paper PMC7468108 (Communications Biology, 2020).
# Experiments:
# [1] = target: T1, hIAPP (Homo sapiens, UniProt P10997); assay: ThT-binding assay, inhibition of hIAPP aggregation; type: biochemical; conditions: molar ratios 5:1, 1:1, 1:5
# T1 construct: hIAPP is a 37-amino acid neuroendocrine peptide hormone; purchased Peptide 2.0 (USA)
# T1 sequence (P10997 34-70 limits assumed): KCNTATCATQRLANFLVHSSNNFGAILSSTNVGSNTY
# Method: A similar inhibitory effect by the hybrid molecules was found toward hIAPP aggregation. […] Upon co-incubation of hIAPP with the hybrid molecules, a dose-response inhibition of hIAPP fibril formation was observed (Fig. 2d, e and Supplementary Fig. 3). […] Also, for IAPP, the marginally stronger inhibitory effect of WGalNAc was statistically significant (Supplementary Fig. 2b).
# (§1) The resulting thin films were dissolved in PBS (100 mM, pH 7.4) and sonicated for 5 min to get a stock concentration of 50 µM, which immediately diluted to required concentration for an experiment. Stock solutions of ThT (4 mM in PBS) and hybrid molecules (10 mM in PBS) were prepared. All the stock solutions were diluted according to the requirement.
# The experiment was performed according to the previous report. […] Kinetics fluorescence data were collected at 37 °C in triplicate using Infinite M200 microplate reader (Tecan, Switzerland), with measurements acquired at 15 min intervals. Excitation and emission wavelengths were set at 440 nm and 485 nm, respectively.
# [2] = target: T2, Aβ42 (Homo sapiens, UniProt P05067); assay: ThT-binding assay, inhibition of Aβ42 aggregation; type: biochemical; conditions: any molar ratio (5:1, 1:1, 1:5)
# T2 construct: purchased rPeptide (USA)
# T2 sequence (P05067 672-713 limits assumed): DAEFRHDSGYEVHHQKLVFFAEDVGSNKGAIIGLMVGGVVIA
# Method: ThT is known to intercalate within the amyloid fibrils resulting in fluorescence emission proportionate to the amyloid growth.
# as §1
# The experiment was performed according to the previous report. […] […] Excitation and emission wavelengths were set at 440 nm and 485 nm, respectively.
Compound,"inhibition of hIAPP fibril formation (ThT), in words [1]","inhibition of Aβ42 fibril formation (ThT), in words [2]"
"N[C@@H]1O[C@H](CO)[C@H](O)[C@H](O)[C@H]1O [galactosylamine, 1-amino-1-deoxy-β-D-galactose]",No inhibitory effect,no inhibition effect
N[C@@H](Cc1c[nH]c2ccccc12)C(=O)O [tryptophan],No inhibitory effect,no inhibition effect
